Columns and labels:
[1] = test system: clinically isolated Streptococcus strains; assay: Activity against clinically isolated Streptococcus strains, general statement; type: cell-based; settings: in words
Excerpt: (§1) Another favorable characteristic of the antibiotic substance gardimycin is that it is active against clinically isolated Streptococcus strains.

[2] = test system: Clostridium perfringens ISS 30543; type: cell-based
[3] = Antibacterial in vitro activity, general statement; type: cell-based; settings: in words
Excerpt: (§2) Metabolite A, metabolite B (hereafter referred to as gardimycin) as well as its salts with alkali and alkali earth metals and metabolite C show good antibacterial in vitro and in vivo activities.

[4] = test system: pathogenic bacteria of the genus Diplococcus and Streptococcus; assay: In vivo activity against experimental infections in mice, general statement; settings: in words
[5] = test system: Diplococcus pneumoniae UC 41; assay: In vitro minimal inhibitory concentration (Table 1); type: cell-based
Excerpt: as §2

[6] = test system: Neisseria gonorrheae ATCC 9826; assay: as above; type: cell-based
Excerpt: as §2

[7] = test system: Streptococcus faecalis ATCC 10541; assay: as above; type: cell-based
Excerpt: as §2

[8] = test system: Staphylococcus aureus ATCC 538; assay: as above; type: cell-based
Excerpt: as §2

[9] = test system: Micrococcus flavus ATCC 10240; assay: as above; type: cell-based
Excerpt: as §2

[10] = test system: Streptococcus haemolyticus C 203; assay: as above; type: cell-based
Excerpt: as §2

Toxicity (LD50) = type: in vivo
[11] = test system: Diplococcus pneumoniae UC 41; assay: Experimental infection in mice; type: in vivo
[12] = Antibacterial in vivo activity, general statement; settings: in words
Excerpt: as §2

[13] = test system: Streptococcus haemolyticus C 203; assay: Experimental infection in mice; type: in vivo
Streptococcus viridans = assay: Minimal inhibitory concentration, clinically isolated strains (Table 2); type: cell-based
Excerpt: as §1

[14] = test system: Streptococcus haemolyticus; assay: as above; type: cell-based
Excerpt: as §1

**Q.** Which “activity against clinically isolated Streptococcus strains” value [1] does the source give for gardimycin here?
**A.** active

**Q.** What about the Minimal inhibitory concentration [2] of the same substance?
**A.** 2 µg/mL

**Q.** And the “antibacterial in vitro activity” value [3]?
**A.** good

**Q.** What about the “in vivo activity against experimental infections” value [4] of the same substance?
**A.** very interesting in vivo activity

**Q.** What about the Minimal inhibitory concentration [5] of the same substance?
**A.** 50 µg/mL

**Q.** And the Minimal inhibitory concentration [6]?
**A.** 20 µg/mL

**Q.** What about the Minimal inhibitory concentration [7] of the same substance?
**A.** 50 µg/mL

**Q.** What about the Minimal inhibitory concentration [8] of the same substance?
**A.** 50 µg/mL

**Q.** What about the Minimal inhibitory concentration [9] of the same substance?
**A.** 1 µg/mL

**Q.** What about the Minimal inhibitory concentration [10] of the same substance?
**A.** 2 µg/mL

**Q.** And the LD50 (Toxicity (LD50); i.p.)?
**A.** higher than 1000 mg/Kg

**Q.** What about the LD50 (Toxicity (LD50); i.v.) of the same substance?
**A.** about 2000 mg/Kg

**Q.** What about the toxicity (Toxicity (LD50); in words) of the same substance?
**A.** very low toxicity

**Q.** What about the ED50 [11] of the same substance?
**A.** 30 mg/kg

**Q.** What about the “antibacterial in vivo activity” value [12] of the same substance?
**A.** good

**Q.** And the ED50 [13]?
**A.** 0.75 mg/kg

**Q.** And the Minimal inhibitory concentration (Streptococcus viridans; clinically isolated strain 2057)?
**A.** 5 µg/mL

**Q.** What about the Minimal inhibitory concentration (Streptococcus viridans; clinically isolated strain 2085) of the same substance?
**A.** 2 µg/mL

**Q.** What about the Minimal inhibitory concentration ([14]; clinically isolated strain 2078) of the same substance?
**A.** 1 µg/mL

**Q.** And the Minimal inhibitory concentration ([14]; clinically isolated strain 2087)?
**A.** 1 µg/mL

Source: US4022884A, “Gardimycin and process for producing same” (Gruppo Lepetit S.p.A., priority 1974, dated 1977)
